This note sets out measurements from ChEMBL document CHEMBL4251572, “Novel aminopyrimidinyl benzimidazoles as potentially antimicrobial agents: Design, synthesis and biological evaluation” (Eur J Med Chem, 2018).

Values after ≈ are worked out from the molar mass of the structure shown. Active and inactive are the calls of the source.

For experiment [1], the system named is Pseudomonas aeruginosa. Description: Antibacterial activity against Pseudomonas aeruginosa after 24 hrs by micro broth dilution assay. The format is functional.
The subject of experiment [2] is Staphylococcus aureus. Description: Antibacterial activity against Staphylococcus aureus ATCC 25923 incubated for 24 hrs followed by plating onto tryptic soy agar medium and measured after 24 hrs. The format is functional. The settings on record: ATCC 25923, 24 h.
The test system of experiment [3] is Saccharomyces cerevisiae. Description: Antifungal against Saccharomyces cerevisiae after 24 hrs by two fold serial dilution method. It is filed as functional.
Experiment [4] deals with Staphylococcus aureus. Description: Ratio of MBC for methicillin-resistant Staphylococcus aureus N315 to MIC for methicillin-resistant Staphylococcus aureus N315. The format is functional.
Experiment [5] concerns Pseudomonas aeruginosa. Description: Antibacterial activity against Pseudomonas aeruginosa incubated for 24 hrs followed by plating onto tryptic soy agar medium and measured after 24 hrs. The format is functional.
Experiment [6] relates to Shigella dysenteriae. Description: Antibacterial activity against Shigella dysenteriae after 24 hrs by micro broth dilution assay. The format is functional. Background: Dilution methods test growth across graded concentrations, often in twofold steps.
In experiment [7] the test system is Escherichia coli. Description: Antibacterial activity against Escherichia coli JM109 after 24 hrs by micro broth dilution assay. It is filed as functional. Conditions: JM109, 24 h.
For experiment [8], the system named is Salmonella typhi. Description: Antibacterial activity against Bacillus typhi after 24 hrs by micro broth dilution assay. Conditions: Salmonella enterica. It is filed as functional, Salmonella enterica subsp. enterica serovar Typhi.
Experiment [9] has as its system Pichia norvegensis. Description: Antifungal against Candida mycoderma after 24 hrs by two fold serial dilution method. The format is functional.
Experiment [10] concerns Staphylococcus aureus. Description: Antibacterial activity against methicillin-resistant Staphylococcus aureus N315 after 24 hrs by micro broth dilution assay. It is filed as functional. The settings on record: N315, 24 h.
Experiment [11] has as its system Bacillus. Description: Antibacterial activity against Bacillus proteus ATCC 13315 after 24 hrs by micro broth dilution assay. It is filed as functional. The settings on record: ATCC 13315, 24 h.
In experiment [12] the test system is Pseudomonas aeruginosa. Description: Ratio of MBC for Pseudomonas aeruginosa to MIC for Pseudomonas aeruginosa. The format is functional.
The subject of experiment [13] is Escherichia coli. Description: Antibacterial activity against Escherichia coli DH52 after 24 hrs by micro broth dilution assay. It is filed as functional. Conditions: DH52, 24 h.
For experiment [14], the system named is Aspergillus flavus. Description: Antifungal against Aspergillus flavus after 24 hrs by two fold serial dilution method. The format is functional.
Experiment [15] deals with Staphylococcus aureus. Description: Ratio of MBC for Staphylococcus aureus ATCC 25923 to MIC for Staphylococcus aureus ATCC 25923. It is filed as functional.
In experiment [16] the test system is Candida albicans. Description: Antifungal against Candida albicans ATCC 76615 after 24 hrs by two fold serial dilution method. It is filed as functional. Conditions: ATCC 76615, 24 h.
Experiment [17] relates to Cyberlindnera jadinii. Description: Antifungal against Candida utilis after 24 hrs by two fold serial dilution method. The format is functional. The settings on record: Williopsis jadinii.
Experiment [18] deals with Bacillus subtilis. Description: Antibacterial activity against Bacillus subtilis after 24 hrs by micro broth dilution assay. It is filed as functional.
The test system of experiment [19] is Staphylococcus aureus. Description: Antibacterial activity against Staphylococcus aureus ATCC 25923 after 24 hrs by micro broth dilution assay. The format is functional. Conditions: ATCC 25923, 24 h.
Experiment [20] relates to Micrococcus luteus. Description: Antibacterial activity against Micrococcus luteus ATCC4698 after 24 hrs by micro broth dilution assay. It is filed as functional. Conditions: ATCC4698, 24 h.
The subject of experiment [21] is Staphylococcus aureus. Description: Antibacterial activity against methicillin-resistant Staphylococcus aureus N315 incubated for 24 hrs followed by plating onto tryptic soy agar medium and measured after 24 hrs. The settings on record: N315, 24 h. The format is functional.
The subject of experiment [22] is Staphylococcus aureus. Description: Antibacterial activity against methicillin-resistant Staphylococcus aureus N315 after 16 serial passages by two-fold serial dilution assay. The format is functional, organism-based.

In the case of `Nc1nc(-c2ccc(Cl)cc2)cc(-c2nc3ccccc3[nH]2)n1`, the minimum inhibitory concentration (MIC) in experiment [1] turned out to be 128 µg/mL (≈ 398 µM); in [3] it was 512 µg/mL (≈ 1590 µM); in experiment [6], 32 µg/mL (≈ 99.4 µM); in experiment [7], 32 µg/mL (≈ 99.4 µM); in [8] it was 512 µg/mL (≈ 1590 µM); in [9], 512 µg/mL (≈ 1590 µM). Besides, the MIC is 128 to 512 µg/mL (≈ 398 to 1590 µM) in [10]; 8 µg/mL (≈ 24.9 µM) in experiment [11]; 128 µg/mL (≈ 398 µM) in experiment [13]; 4 µg/mL (≈ 12.4 µM) in experiment [14]; 1 µg/mL (≈ 3.11 µM) in experiment [16]; 2 µg/mL (≈ 6.22 µM) in experiment [17]. Also, the MIC in experiment [18], in [19] and in experiment [20] was 64 µg/mL (≈ 199 µM) throughout. Further, the MBC was found to be 256 µg/mL (≈ 796 µM) in experiment [2], 512 µg/mL (≈ 1590 µM) in experiment [5] and 256 µg/mL (≈ 796 µM) in [21]. The Ratio worked out at 2 in [4], 4 in experiment [12] and 4 in experiment [15].

Take `CCCCCCCn1c(-c2cc(-c3ccc(C)cc3)nc(N)n2)nc2ccccc21`: the MIC is 4 µg/mL (≈ 10 µM) in [1]; 4 µg/mL (≈ 10 µM) in [3]; 4 µg/mL (≈ 10 µM) in experiment [6]; 16 µg/mL (≈ 40 µM) in experiment [7]; 2 µg/mL (≈ 5.01 µM) in [8]; 512 µg/mL (≈ 1280 µM) in experiment [9]. Also, the MIC in experiment [10] was determined as 32 µg/mL (≈ 80.1 µM); in [11], 256 µg/mL (≈ 641 µM); in experiment [13], 4 µg/mL (≈ 10 µM); in experiment [14] it was 512 µg/mL (≈ 1280 µM); in experiment [16] it was 32 µg/mL (≈ 80.1 µM); in experiment [17], 32 µg/mL (≈ 80.1 µM). For the same compound, the MIC in [18] was determined as 512 µg/mL (≈ 1280 µM); in experiment [19], 512 µg/mL (≈ 1280 µM); in experiment [20], 8 µg/mL (≈ 20 µM). Moreover, the minimal bactericidal concentration (MBC) was more than 512 µg/mL in [2], 4 µg/mL (≈ 10 µM) in experiment [5] and 32 µg/mL (≈ 80.1 µM) in experiment [21]. The Ratio in experiment [4] and in experiment [12] was 1 throughout.

Consider `CCCCCCCn1c(-c2cc(-c3ccc(Cl)cc3Cl)nc(N)n2)nc2ccccc21`, for which the MIC came to 64 µg/mL (≈ 141 µM) in experiment [1]; 128 µg/mL (≈ 282 µM) in experiment [3]; 128 µg/mL (≈ 282 µM) in [6]; 512 µg/mL (≈ 1130 µM) in experiment [7]; 32 µg/mL (≈ 70.4 µM) in experiment [8]; 256 µg/mL (≈ 563 µM) in experiment [9]. The MIC amounted to 512 µg/mL (≈ 1130 µM) in experiment [10]; 512 µg/mL (≈ 1130 µM) in experiment [11]; 32 µg/mL (≈ 70.4 µM) in experiment [13]; 256 µg/mL (≈ 563 µM) in [14]; 4 µg/mL (≈ 8.8 µM) in experiment [16]; 128 µg/mL (≈ 282 µM) in experiment [17]. Also, the MIC in experiment [18] was determined as 256 µg/mL (≈ 563 µM); in experiment [19] it was 256 µg/mL (≈ 563 µM); in experiment [20], 16 µg/mL (≈ 35.2 µM). Moreover, the MBC in [2] is 512 µg/mL (≈ 1130 µM); in [5] it was 128 µg/mL (≈ 282 µM); in experiment [21], more than 512 µg/mL. In addition, the Ratio in experiment [12] and in [15] was 2 throughout.

Take `Nc1nc(-c2ccc(F)cc2)cc(-c2nc3ccccc3[nH]2)n1`: the MIC in experiment [1] was found to be 16 µg/mL (≈ 52.4 µM); in experiment [3] it was 64 µg/mL (≈ 210 µM); in [6] it was 16 µg/mL (≈ 52.4 µM); in experiment [7], 128 µg/mL (≈ 419 µM); in experiment [8], 8 µg/mL (≈ 26.2 µM); in experiment [9], 256 µg/mL (≈ 838 µM). Moreover, the MIC in [10] came to 128 µg/mL (≈ 419 µM); in [11] it was 128 µg/mL (≈ 419 µM); in [13] it was 128 µg/mL (≈ 419 µM); in [14] it was 256 µg/mL (≈ 838 µM); in experiment [16] it was 8 µg/mL (≈ 26.2 µM); in [17], 128 µg/mL (≈ 419 µM). Moreover, the MIC stood at 2 µg/mL (≈ 6.55 µM) in experiment [18], 2 µg/mL (≈ 6.55 µM) in experiment [19] and 32 µg/mL (≈ 105 µM) in experiment [20]. The values for the minimum bactericidal concentration (MBC) in [2], in [5] and in experiment [21] were 2 µg/mL (≈ 6.55 µM), 16 µg/mL (≈ 52.4 µM) and 512 µg/mL (≈ 1680 µM), respectively. The Ratio in experiment [4] was 4; in [12], 1; in experiment [15] it was 1.

On to `CCn1cc(C(=O)O)c(=O)c2cc(F)c(N3CCNCC3)cc21` [NORFLOXACIN], for which the outcome in experiment [22] was inactive. The MIC is 1 µg/mL (≈ 3.13 µM) in [1]; 16 µg/mL (≈ 50.1 µM) in experiment [6]; 1 µg/mL (≈ 3.13 µM) in experiment [7]; 1 µg/mL (≈ 3.13 µM) in experiment [8]; 1 µg/mL (≈ 3.13 µM) in [10]; 4 µg/mL (≈ 12.5 µM) in [11]. In addition, the minimal inhibitory concentration (MIC) in experiment [13] came out at 1 µg/mL (≈ 3.13 µM); in [18], 2 µg/mL (≈ 6.26 µM); in experiment [19], 8 µg/mL (≈ 25.1 µM); in experiment [20] it was 1 µg/mL (≈ 3.13 µM).

As a reminder, the MIC is the lowest concentration found to suppress growth. A low value points to a more susceptible organism. What is called MBC is the smallest concentration meeting the test's criterion for killing. Lower therefore signals greater bactericidal potency.
